From patent US20220040129A1, “TREATMENT OF HYPERAMMONEMIA IN PATIENTS WITH RENAL INSUFFICIENCY” (RECORDATI S.p.A., priority 2019, published 2022)

Legend:
Type in all cases: in vitro ADME
human MDR1 = human MDR1 (Homo sapiens, UniProt P08183); experiment: In vitro transporter inhibition
Method: (§1) In vitro drug interaction studies were performed with human transporters. […] Potential interactions with inhibitors of the OAT1 transporter were considered clinically irrelevant.

human MATE2-K = human MATE2-K (Homo sapiens, UniProt Q86VL8); experiment: In vitro transporter inhibition
Chain of human MATE2-K (Q86VL8 1-566 isoform Q86VL8-3): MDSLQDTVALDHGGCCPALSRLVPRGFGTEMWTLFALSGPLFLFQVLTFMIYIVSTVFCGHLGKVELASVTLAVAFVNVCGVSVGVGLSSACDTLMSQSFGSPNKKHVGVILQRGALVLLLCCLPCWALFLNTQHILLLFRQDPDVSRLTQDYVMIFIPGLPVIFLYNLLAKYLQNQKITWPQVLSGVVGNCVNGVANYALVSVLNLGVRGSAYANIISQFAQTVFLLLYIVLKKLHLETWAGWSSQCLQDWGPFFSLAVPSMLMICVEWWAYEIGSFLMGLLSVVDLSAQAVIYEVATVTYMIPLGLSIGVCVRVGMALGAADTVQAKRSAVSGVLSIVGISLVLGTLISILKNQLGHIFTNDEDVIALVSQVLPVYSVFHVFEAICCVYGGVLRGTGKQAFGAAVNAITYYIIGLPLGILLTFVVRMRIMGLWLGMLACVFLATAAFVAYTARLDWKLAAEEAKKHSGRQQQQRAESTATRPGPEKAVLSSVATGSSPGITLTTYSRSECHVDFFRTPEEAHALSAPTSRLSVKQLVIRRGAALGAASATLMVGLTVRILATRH
Method: as §1

human OAT1 = biological target: T1, human OAT1 (Homo sapiens, UniProt Q4U2R8); experiment: In vitro transporter inhibition
T1 sequence (Q4U2R8 1-563): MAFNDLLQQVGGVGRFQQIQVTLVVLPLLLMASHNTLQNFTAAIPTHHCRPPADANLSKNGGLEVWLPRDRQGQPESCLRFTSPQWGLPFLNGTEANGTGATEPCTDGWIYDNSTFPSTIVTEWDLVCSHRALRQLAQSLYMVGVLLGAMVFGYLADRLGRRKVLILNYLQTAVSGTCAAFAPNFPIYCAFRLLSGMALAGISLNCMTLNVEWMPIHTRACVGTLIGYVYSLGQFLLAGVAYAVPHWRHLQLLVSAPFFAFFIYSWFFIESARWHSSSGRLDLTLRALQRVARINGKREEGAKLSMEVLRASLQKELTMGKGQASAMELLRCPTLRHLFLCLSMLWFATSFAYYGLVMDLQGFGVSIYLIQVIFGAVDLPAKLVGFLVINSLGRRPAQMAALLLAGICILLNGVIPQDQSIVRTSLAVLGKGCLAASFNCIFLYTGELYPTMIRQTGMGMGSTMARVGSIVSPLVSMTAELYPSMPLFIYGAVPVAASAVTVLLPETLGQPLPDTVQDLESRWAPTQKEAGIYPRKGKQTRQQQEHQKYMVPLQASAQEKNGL
Method: as §1

human OAT3 = biological target: T2, human OAT3 (Homo sapiens, UniProt Q8TCC7); experiment: In vitro transporter inhibition
T2 sequence (Q8TCC7 1-542): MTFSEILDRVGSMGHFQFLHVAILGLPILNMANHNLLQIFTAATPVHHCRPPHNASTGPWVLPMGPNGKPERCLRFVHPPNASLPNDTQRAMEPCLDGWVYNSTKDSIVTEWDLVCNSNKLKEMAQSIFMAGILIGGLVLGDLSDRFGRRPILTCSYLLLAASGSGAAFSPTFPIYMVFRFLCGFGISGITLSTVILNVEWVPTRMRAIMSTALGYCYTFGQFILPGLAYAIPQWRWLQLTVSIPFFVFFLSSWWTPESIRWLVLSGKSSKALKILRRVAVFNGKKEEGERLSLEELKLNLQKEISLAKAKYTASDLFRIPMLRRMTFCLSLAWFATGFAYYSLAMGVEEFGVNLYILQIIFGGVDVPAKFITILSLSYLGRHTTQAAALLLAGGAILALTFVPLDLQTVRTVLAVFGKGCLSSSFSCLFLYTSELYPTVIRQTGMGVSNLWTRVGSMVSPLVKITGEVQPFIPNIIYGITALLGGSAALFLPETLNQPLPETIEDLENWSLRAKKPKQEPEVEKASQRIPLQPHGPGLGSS
Method: as §1

human BSEP = human BSEP (Homo sapiens, UniProt O95342); experiment: In vitro transporter inhibition
Chain of human BSEP (O95342 whole entry): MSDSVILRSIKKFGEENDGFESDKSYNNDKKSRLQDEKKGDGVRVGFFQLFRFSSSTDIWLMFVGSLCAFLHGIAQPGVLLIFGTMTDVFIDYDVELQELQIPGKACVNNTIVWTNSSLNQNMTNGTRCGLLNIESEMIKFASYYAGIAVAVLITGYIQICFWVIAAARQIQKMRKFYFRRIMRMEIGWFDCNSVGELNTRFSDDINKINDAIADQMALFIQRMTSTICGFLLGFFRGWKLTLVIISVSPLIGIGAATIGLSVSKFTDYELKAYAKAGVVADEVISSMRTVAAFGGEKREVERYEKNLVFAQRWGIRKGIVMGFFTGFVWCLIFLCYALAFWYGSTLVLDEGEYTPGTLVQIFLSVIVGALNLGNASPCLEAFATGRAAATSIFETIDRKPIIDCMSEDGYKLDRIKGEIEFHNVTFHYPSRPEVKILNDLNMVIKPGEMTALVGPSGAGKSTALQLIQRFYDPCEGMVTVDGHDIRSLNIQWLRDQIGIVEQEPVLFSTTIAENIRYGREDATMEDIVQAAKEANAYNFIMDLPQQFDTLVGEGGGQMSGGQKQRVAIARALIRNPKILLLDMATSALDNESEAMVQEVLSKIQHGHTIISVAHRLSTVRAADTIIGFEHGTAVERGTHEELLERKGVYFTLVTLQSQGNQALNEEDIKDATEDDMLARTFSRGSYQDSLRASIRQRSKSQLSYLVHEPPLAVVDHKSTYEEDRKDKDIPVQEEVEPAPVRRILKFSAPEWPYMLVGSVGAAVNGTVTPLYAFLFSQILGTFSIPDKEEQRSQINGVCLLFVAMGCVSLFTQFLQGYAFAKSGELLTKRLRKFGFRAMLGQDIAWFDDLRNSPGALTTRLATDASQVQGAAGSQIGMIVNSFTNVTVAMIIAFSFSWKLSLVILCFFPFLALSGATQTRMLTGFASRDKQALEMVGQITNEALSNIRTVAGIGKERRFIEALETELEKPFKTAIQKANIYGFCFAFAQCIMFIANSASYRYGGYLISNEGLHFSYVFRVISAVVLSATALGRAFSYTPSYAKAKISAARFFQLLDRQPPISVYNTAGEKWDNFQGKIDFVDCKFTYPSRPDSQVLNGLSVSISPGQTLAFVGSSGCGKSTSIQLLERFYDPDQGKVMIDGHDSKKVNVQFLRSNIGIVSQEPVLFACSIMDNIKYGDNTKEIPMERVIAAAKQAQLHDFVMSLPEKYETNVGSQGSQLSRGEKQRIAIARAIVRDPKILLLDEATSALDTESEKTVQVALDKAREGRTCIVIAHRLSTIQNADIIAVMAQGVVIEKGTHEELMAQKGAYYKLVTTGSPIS
Method: as §1

human OATP1B1 = biological target: T3, human OATP1B1 (Homo sapiens, UniProt Q9Y6L6); experiment: In vitro transporter inhibition
T3 sequence (Q9Y6L6 1-691): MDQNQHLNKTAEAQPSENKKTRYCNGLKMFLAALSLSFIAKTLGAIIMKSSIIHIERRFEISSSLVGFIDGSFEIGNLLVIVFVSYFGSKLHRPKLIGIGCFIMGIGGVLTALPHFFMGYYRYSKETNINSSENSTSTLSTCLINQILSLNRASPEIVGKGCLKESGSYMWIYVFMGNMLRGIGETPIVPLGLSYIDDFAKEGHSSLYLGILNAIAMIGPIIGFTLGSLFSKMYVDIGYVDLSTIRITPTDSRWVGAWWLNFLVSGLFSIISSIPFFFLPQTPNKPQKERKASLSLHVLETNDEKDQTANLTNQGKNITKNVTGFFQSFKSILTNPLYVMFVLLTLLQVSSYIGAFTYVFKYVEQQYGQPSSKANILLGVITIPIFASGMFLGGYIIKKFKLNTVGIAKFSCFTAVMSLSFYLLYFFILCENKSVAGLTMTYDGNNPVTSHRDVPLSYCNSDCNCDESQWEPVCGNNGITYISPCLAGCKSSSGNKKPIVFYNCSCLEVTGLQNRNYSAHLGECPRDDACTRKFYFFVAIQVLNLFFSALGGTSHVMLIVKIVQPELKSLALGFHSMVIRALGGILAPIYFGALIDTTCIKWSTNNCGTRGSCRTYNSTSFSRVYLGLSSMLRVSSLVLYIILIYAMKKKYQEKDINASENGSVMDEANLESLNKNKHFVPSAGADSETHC
Method: as §1

human OCT2 = biological target: T4, human OCT2 (Homo sapiens, UniProt O15244); experiment: In vitro transporter inhibition
T4 sequence (O15244 1-555): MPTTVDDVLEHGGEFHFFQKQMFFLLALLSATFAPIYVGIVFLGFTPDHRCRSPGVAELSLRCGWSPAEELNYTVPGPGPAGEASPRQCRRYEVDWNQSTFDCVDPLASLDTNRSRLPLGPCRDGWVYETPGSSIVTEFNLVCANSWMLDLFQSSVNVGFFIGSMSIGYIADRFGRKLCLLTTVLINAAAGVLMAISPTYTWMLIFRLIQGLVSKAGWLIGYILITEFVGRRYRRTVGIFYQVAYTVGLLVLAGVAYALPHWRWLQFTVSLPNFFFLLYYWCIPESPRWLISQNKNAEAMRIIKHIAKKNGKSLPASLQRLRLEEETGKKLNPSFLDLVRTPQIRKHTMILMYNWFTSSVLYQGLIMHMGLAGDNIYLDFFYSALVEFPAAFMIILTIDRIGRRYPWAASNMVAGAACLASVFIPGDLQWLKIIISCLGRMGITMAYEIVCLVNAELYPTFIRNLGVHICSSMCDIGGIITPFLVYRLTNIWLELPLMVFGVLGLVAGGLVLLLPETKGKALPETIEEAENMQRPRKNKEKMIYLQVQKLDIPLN
Method: as §1

CYP2D6 = CYP2D6 (Homo sapiens, UniProt P10635); experiment: In vitro CYP inhibition
Chain of CYP2D6 (P10635 whole entry): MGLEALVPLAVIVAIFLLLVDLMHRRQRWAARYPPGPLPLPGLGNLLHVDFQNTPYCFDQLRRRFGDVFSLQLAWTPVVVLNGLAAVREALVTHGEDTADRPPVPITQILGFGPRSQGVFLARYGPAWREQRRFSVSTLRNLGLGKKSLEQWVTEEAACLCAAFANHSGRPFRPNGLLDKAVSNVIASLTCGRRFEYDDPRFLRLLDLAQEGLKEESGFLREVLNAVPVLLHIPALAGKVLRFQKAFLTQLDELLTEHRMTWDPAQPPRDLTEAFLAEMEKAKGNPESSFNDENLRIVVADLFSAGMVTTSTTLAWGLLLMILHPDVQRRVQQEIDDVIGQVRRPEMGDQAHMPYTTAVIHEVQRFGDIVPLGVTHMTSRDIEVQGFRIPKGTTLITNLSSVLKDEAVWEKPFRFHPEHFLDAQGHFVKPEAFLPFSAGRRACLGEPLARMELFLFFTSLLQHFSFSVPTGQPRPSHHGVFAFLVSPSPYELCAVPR

Chain of human MDR1 (P08183 whole entry): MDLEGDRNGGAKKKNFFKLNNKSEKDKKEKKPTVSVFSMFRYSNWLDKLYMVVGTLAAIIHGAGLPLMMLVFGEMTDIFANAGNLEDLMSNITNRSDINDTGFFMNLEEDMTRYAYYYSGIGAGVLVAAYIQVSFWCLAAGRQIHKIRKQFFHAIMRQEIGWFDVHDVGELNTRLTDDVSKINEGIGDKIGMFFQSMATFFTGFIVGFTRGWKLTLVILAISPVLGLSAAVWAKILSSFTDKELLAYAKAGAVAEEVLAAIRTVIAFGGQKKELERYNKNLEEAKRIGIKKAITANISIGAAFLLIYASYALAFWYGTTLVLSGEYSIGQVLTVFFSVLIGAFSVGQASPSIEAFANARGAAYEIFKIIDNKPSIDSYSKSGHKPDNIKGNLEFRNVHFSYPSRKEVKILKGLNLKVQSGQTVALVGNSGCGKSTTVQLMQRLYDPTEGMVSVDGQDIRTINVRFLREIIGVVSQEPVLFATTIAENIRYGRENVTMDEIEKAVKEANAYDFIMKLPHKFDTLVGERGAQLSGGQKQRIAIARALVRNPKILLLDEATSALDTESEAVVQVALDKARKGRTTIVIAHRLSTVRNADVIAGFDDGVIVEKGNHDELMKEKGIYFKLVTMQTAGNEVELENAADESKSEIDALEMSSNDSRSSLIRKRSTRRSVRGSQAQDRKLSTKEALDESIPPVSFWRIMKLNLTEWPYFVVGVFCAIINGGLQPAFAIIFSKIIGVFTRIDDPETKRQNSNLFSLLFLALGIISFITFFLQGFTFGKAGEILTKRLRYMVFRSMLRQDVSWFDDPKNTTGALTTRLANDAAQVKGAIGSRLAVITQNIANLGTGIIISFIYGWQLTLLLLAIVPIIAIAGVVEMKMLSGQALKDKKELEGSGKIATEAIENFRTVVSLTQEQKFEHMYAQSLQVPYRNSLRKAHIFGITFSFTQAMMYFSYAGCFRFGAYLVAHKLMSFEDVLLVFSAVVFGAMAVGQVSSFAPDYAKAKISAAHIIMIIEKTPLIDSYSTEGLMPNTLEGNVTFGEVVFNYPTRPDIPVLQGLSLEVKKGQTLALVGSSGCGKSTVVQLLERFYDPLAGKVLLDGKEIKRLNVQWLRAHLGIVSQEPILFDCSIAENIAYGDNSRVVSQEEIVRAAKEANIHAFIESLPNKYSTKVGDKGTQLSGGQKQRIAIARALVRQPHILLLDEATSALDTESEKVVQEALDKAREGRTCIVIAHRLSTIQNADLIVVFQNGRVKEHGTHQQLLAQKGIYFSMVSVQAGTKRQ

NC(=O)N[C@@H](CCC(=O)O)C(=O)O [carglumic acid, N-carbamoyl-L-glutamic acid]
not an inhibitor: Inhibition of human MDR1 efflux transporter (human MDR1) | Inhibition of human MATE2-K uptake transporter (human MATE2-K) | Inhibition of human OAT1 uptake transporter (human OAT1) | Inhibition of human OAT3 uptake transporter (human OAT3) | Inhibition of human BSEP efflux transporter (human BSEP) | Inhibition of human OATP1B1 uptake transporter (human OATP1B1) | Inhibition of human OCT2 uptake transporter (human OCT2) | Inhibition of CYP2D6 (CYP2D6)
